Assay results published in US20170190671A1, “BIS(ARYL)CATECHOL DERIVATIVES AS HERBICIDES” (E I DU PONT DE NEMOURS AND COMPANY, priority 2014, published 2017).

Experiments:
Experiment in all cases: Test E postemergence
Format in all cases: in vivo
Settings in all cases: scale 0 to 100
[1] = test system: wild poinsettia (Euphorbia heterophylla)
Description: (§1) Seeds of plant species selected from corn (Zea mays), soybean (Glycine max), velvetleaf (Abutilon theophrasti), cocklebur (common cocklebur, Xanthium strumarium), lambsquarters (Chenopodium album), wild poinsettia (Euphorbia heterophylla), palmer pigweed (Amaranthus palmeri), waterhemp (common waterhemp, Amaranthus rudis), surinam grass (Brachiaria decumbens), large (Lg) crabgrass (Digitaria sanguinalis), Brazilian crabgrass (Digitaria horizontalis), fall panicum (Panicum dichotomiflorum), giant foxtail (Setaria faberii), green foxtail (Setaria viridis), goosegrass (Eleusine indica), johnsongrass (Sorghum halepense), ragweed (common ragweed, Ambrosia elatior), barnyardgrass (Echinochloa crus-galli), sandbur (southern sandbur, Cenchrus echinatus), arrowleaf sida (Sida rhombifolia), Italian ryegrass (Lolium multiflorum), dayflower (Virginia (VA) dayflower, Commelina virginica), field bindweed (Convolvulus arvensis), morningglory (Ipomoea coccinea), nightshade (eastern black nightshade, Solanum ptycanthum), kochia (Kochia scoparia), yellow nutsedge (Cyperus esculentus), horseweed (Conyza canadensis), and hairy beggarticks (Bidens pilosa), were planted into a silt loam soil and treated preemergence with test chemicals formulated in a non-phytotoxic solvent mixture which included a surfactant.
(§2) At the same time, plants from these crop and weed species and also waterhemp_RES1, (ALS & Triazine resistant common waterhemp, Amaranthus rudis), and waterhemp_RES2, (ALS & HPPD resistant common waterhemp, Amaranthus rudis) were planted in pots containing Redi-Earth® planting medium (Scotts Company, 14111 Scottslawn Road, Marysville, Ohio 43041) comprising spaghnum peat moss, vermiculite, wetting agent and starter nutrients were treated with postemergence applications of test chemicals formulated in the same manner. Plants ranged in height from 2 to 18 cm for postemergence treatments (1- to 4-leaf stage). Treated plants and controls were maintained in a greenhouse for 14 to 21 days, after which time all species were compared to controls and visually evaluated. Plant response ratings, summarized in Table E, are based on a scale of 0 to 100 where 0 is no effect and 100 is complete control. A dash (-) response means no test result.

[2] = test system: sandbur (southern sandbur, Cenchrus echinatus)
Description: as §1, §2

[3] = test system: palmer pigweed (Amaranthus palmeri)
Description: as §1, §2

[4] = test system: Brazilian crabgrass (Digitaria horizontalis)
Description: as §1, §2

[5] = test system: barnyardgrass (Echinochloa crus-galli)
Description: as §1, §2

[6] = test system: field bindweed (Convolvulus arvensis)
Description: as §1, §2

[7] = test system: arrowleaf sida (Sida rhombifolia)
Description: as §1, §2

[8] = test system: fall panicum (Panicum dichotomiflorum)
Description: as §1, §2

[9] = test system: corn (Zea mays)
Description: as §1, §2

[10] = test system: soybean (Glycine max)
Description: as §1, §2

[11] = test system: hairy beggarticks (Bidens pilosa)
Description: as §1, §2

[12] = test system: ragweed (common ragweed, Ambrosia elatior)
Description: as §1, §2

[13] = test system: Italian ryegrass (Lolium multiflorum)
Description: as §1, §2

[14] = test system: waterhemp (common waterhemp, Amaranthus rudis)
Description: as §1, §2

[15] = test system: waterhemp_RES1 (ALS & Triazine resistant common waterhemp, Amaranthus rudis)
Description: as §1, §2

[16] = test system: kochia (Kochia scoparia)
Description: as §1, §2

[17] = test system: waterhemp_RES2 (ALS & HPPD resistant common waterhemp, Amaranthus rudis)
Description: as §1, §2

[18] = test system: horseweed (Conyza canadensis)
Description: as §1, §2

[19] = test system: dayflower (Virginia (VA) dayflower, Commelina virginica)
Description: as §1, §2

N#Cc1cccc(Oc2ncc(Cl)cn2)c1Oc1ccc(Cl)cc1 [Compound 36]
90: Plant response rating, Poinsettia, Wild ([1]; 125 g ai/ha) | Plant response rating, Waterhemp ([14]; 31 g ai/ha) | Plant response rating, Kochia ([16]; 16 g ai/ha) | Plant response rating, Waterhemp_RES2 ([17]; 31 g ai/ha) | Plant response rating, Waterhemp_RES2 ([17]; 125 g ai/ha)
20: Plant response rating, Sandbur ([2]; 31 g ai/ha) | Plant response rating, Sandbur ([2]; 62 g ai/ha) | Plant response rating, Crabgrass, Brazil ([4]; 16 g ai/ha) | Plant response rating, Crabgrass, Brazil ([4]; 31 g ai/ha) | Plant response rating, Barnyardgrass ([5]; 16 g ai/ha) | Plant response rating, Panicum, Fall ([8]; 16 g ai/ha) | Plant response rating, Corn ([9]; 31 g ai/ha) | Plant response rating, Corn ([9]; 62 g ai/ha) | Plant response rating, Dayflower, VA ([19]; 16 g ai/ha)
100: Plant response rating, Waterhemp_RES1 ([15]; 125 g ai/ha) | Plant response rating, Kochia ([16]; 62 g ai/ha)
85: Plant response rating, Pigweed, Palmer ([3]; 31 g ai/ha) | Plant response rating, Pigweed, Palmer ([3]; 62 g ai/ha) | Plant response rating, Pigweed, Palmer ([3]; 125 g ai/ha) | Plant response rating, Field Bindweed ([6]; 125 g ai/ha) | Plant response rating, Arrowleaf Sida ([7]; 125 g ai/ha)
40: Plant response rating, Field Bindweed ([6]; 16 g ai/ha) | Plant response rating, Beggarticks ([11]; 125 g ai/ha)
0: Plant response rating, Horseweed ([18]; 16 g ai/ha) | Plant response rating, Horseweed ([18]; 31 g ai/ha)
30: Plant response rating, Crabgrass, Brazil ([4]; 62 g ai/ha) | Plant response rating, Crabgrass, Brazil ([4]; 125 g ai/ha) | Plant response rating, Barnyardgrass ([5]; 62 g ai/ha) | Plant response rating, Beggarticks ([11]; 16 g ai/ha) | Plant response rating, Beggarticks ([11]; 62 g ai/ha) | Plant response rating, Ryegrass, Italian ([13]; 125 g ai/ha)
70: Plant response rating, Poinsettia, Wild ([1]; 62 g ai/ha) | Plant response rating, Arrowleaf Sida ([7]; 16 g ai/ha) | Plant response rating, Arrowleaf Sida ([7]; 31 g ai/ha) | Plant response rating, Soybean ([10]; 62 g ai/ha) | Plant response rating, Dayflower, VA ([19]; 125 g ai/ha)
15: Plant response rating, Panicum, Fall ([8]; 62 g ai/ha) | Plant response rating, Ragweed ([12]; 16 g ai/ha) | Plant response rating, Ryegrass, Italian ([13]; 31 g ai/ha)
50: Plant response rating, Poinsettia, Wild ([1]; 16 g ai/ha) | Plant response rating, Barnyardgrass ([5]; 125 g ai/ha) | Plant response rating, Field Bindweed ([6]; 31 g ai/ha) | Plant response rating, Soybean ([10]; 31 g ai/ha) | Plant response rating, Soybean ([10]; 125 g ai/ha) | Plant response rating, Ragweed ([12]; 125 g ai/ha) | Plant response rating, Dayflower, VA ([19]; 31 g ai/ha)
65: Plant response rating, Field Bindweed ([6]; 62 g ai/ha)
25: Plant response rating, Sandbur ([2]; 125 g ai/ha) | Plant response rating, Barnyardgrass ([5]; 31 g ai/ha) | Plant response rating, Panicum, Fall ([8]; 31 g ai/ha) | Plant response rating, Panicum, Fall ([8]; 125 g ai/ha) | Plant response rating, Corn ([9]; 125 g ai/ha) | Plant response rating, Ragweed ([12]; 31 g ai/ha)
80: Plant response rating, Arrowleaf Sida ([7]; 62 g ai/ha) | Plant response rating, Waterhemp_RES2 ([17]; 62 g ai/ha)
35: Plant response rating, Beggarticks ([11]; 31 g ai/ha) | Plant response rating, Ragweed ([12]; 62 g ai/ha)
60: Plant response rating, Poinsettia, Wild ([1]; 31 g ai/ha) | Plant response rating, Soybean ([10]; 16 g ai/ha) | Plant response rating, Waterhemp_RES2 ([17]; 16 g ai/ha) | Plant response rating, Dayflower, VA ([19]; 62 g ai/ha)
75: Plant response rating, Pigweed, Palmer ([3]; 16 g ai/ha)
95: Plant response rating, Waterhemp ([14]; 16 g ai/ha) | Plant response rating, Waterhemp ([14]; 62 g ai/ha) | Plant response rating, Waterhemp ([14]; 125 g ai/ha) | Plant response rating, Waterhemp_RES1 ([15]; 31 g ai/ha) | Plant response rating, Waterhemp_RES1 ([15]; 62 g ai/ha) | Plant response rating, Kochia ([16]; 31 g ai/ha) | Plant response rating, Kochia ([16]; 125 g ai/ha)
98: Plant response rating, Waterhemp_RES1 ([15]; 16 g ai/ha)
10: Plant response rating, Sandbur ([2]; 16 g ai/ha) | Plant response rating, Corn ([9]; 16 g ai/ha) | Plant response rating, Ryegrass, Italian ([13]; 16 g ai/ha) | Plant response rating, Ryegrass, Italian ([13]; 62 g ai/ha) | Plant response rating, Horseweed ([18]; 125 g ai/ha)
5: Plant response rating, Horseweed ([18]; 62 g ai/ha)
